Drawing on patent publication US12065442B2, “Tropomyosin receptor kinase (TRK) degradation compounds and methods of use” (Cullgen (Shanghai), Inc., priority 2018, dated 2024), this text covers IC50 for 18 molecules.

The subject of one test is KM12 cells. Description: Cell viability assay (CellTiter-Glo) in KM12 cells. Format: cell-based. The following applies: Homo sapiens, 72 h; Table 2; KM12 cell viability, CellTiter-Glo, 3 days; read-out: IC50. (In general: In ATP-based viability assays light output follows the ATP content of the culture.)
The IC50 is the concentration needed to halve the response being measured. `O=C(CN1CCN(c2ccc(C(=O)Nc3n[nH]c4ccc(Cc5cc(F)cc(F)c5)cc34)c(NC3CCOCC3)c2)CC1)NCCOCCOCCOCCOCCOCCNc1cccc2c1C(=O)N(C1CCC(=O)NC1=O)C2=O` (stereo not drawn) [CPD-065, N-(5-(3,5-difluorobenzyl)-1H-indazol-3-yl)-4-(4-(20-((2-(2,6-dioxopiperidin-3-yl)-1,3-dioxoisoindolin-4-yl)amino)-2-oxo-6,9,12,15,18-pentaoxa-3-azaicosyl)piperazin-1-yl)-2-((tetrahydro-2H-pyran-4-yl)amino)benzamide]: the IC50 amounted to 72.6 nM.

Take `O=C1CCC(N2C(=O)c3cccc(NCCCCC(=O)N4CCN(c5ccc(C(=O)Nc6n[nH]c7ccc(Cc8cc(F)cc(F)c8)cc67)c(NC6CCOCC6)c5)CC4)c3C2=O)C(=O)N1` (stereo not drawn) [CPD-050, N-(5-(3,5-difluorobenzyl)-1H-indazol-3-yl)-4-(4-(5-((2-(2,6-dioxopiperidin-3-yl)-1,3-dioxoisoindolin-4-yl)amino)pentanoyl)piperazin-1-yl)-2-((tetrahydro-2H-pyran-4-yl)amino)benzamide]: the 50% inhibitory concentration (IC50) amounted to 28 nM.

Take `Cc1ncsc1-c1ccc(CNC(=O)[C@@H]2C[C@@H](O)CN2C(=O)[C@@H](NC(=O)COCCOCC(=O)N2CCN(c3cccc(-c4cnc5ccc(N6CCC[C@@H]6c6cccc(F)c6)nn45)n3)CC2)C(C)(C)C)cc1` [CPD-002, (2S,4R)-1-((S)-2-(2-(2-(2-(4-(6-(6-((R)-2-(3-Fluorophenyl)pyrrolidin-1-yl)imidazo[1,2-b]pyridazin-3-yl)pyridin-2-yl)piperazin-1-yl)-2-oxoethoxy)ethoxy)acetamido)-3,3-dimethylbutanoyl)-4-hydroxy-N-(4-(4-methylthiazol-5-yl)benzyl)pyrrolidine-2-carboxamide]: the half-inhibitory concentration (IC50) is more than 1000 nM.

Regarding `Cc1ncsc1-c1ccc(CNC(=O)[C@@H]2C[C@@H](O)CN2C(=O)[C@@H](NC(=O)COCCOCCOCC(=O)N2CCN(c3ccc(C(=O)Nc4n[nH]c5ccc(Cc6cc(F)cc(F)c6)cc45)c(NC4CCOCC4)c3)CC2)C(C)(C)C)cc1` [CPD-058, (2S,4R)-1-((S)-2-(tert-butyl)-14-(4-(4-((5-(3,5-Difluorobenzyl)-1H-indazol-3-yl)carbamoyl)-3-((tetrahydro-2H-pyran-4-yl)amino)phenyl)piperazin-1-yl)-4,14-dioxo-6,9,12-trioxa-3-azatetradecanoyl)-4-hydroxy-N-(4-(4-methylthiazol-5-yl)benzyl)pyrrolidine-2-carboxamide], the 50% inhibitory concentration (IC50) is more than 1000 nM.

For the molecule `Cc1ncsc1-c1ccc(CNC(=O)[C@@H]2C[C@@H](O)CN2C(=O)[C@@H](NC(=O)COCCOCCOCCOCCOCC(=O)N2CCN(c3cccc(-c4cnc5ccc(N6CCC[C@@H]6c6cccc(F)c6)nn45)n3)CC2)C(C)(C)C)cc1` [CPD-003, (2S,4R)-1-((S)-2-(tert-butyl)-20-(4-(6-(6-((R)-2-(3-Fluorophenyl)pyrrolidin-1-yl)imidazo[1,2-b]pyridazin-3-yl)pyridin-2-yl)piperazin-1-yl)-4,20-dioxo-6,9,12,15,18-pentaoxa-3-azaicosanoyl)-4-hydroxy-N-(4-(4-methylthiazol-5-yl)benzyl)pyrrolidine-2-carboxamide], the IC50 is more than 1000 nM.

On to `O=C1CCC(N2C(=O)c3cccc(NCCCCC(=O)N4CCN(c5cccc(-c6cnc7ccc(N8CCC[C@@H]8c8cccc(F)c8)nn67)n5)CC4)c3C2=O)C(=O)N1` (stereo partly drawn) [CPD-014, 2-(2,6-Dioxopiperidin-3-yl)-4-((5-(4-(6-(6-((R)-2-(3-fluorophenyl)pyrrolidin-1-yl)imidazo[1,2-b]pyridazin-3-yl)pyridin-2-yl)piperazin-1-yl)-5-oxopentyl)amino)isoindoline-1,3-dione], for which the IC50 came to 7.9 nM.

In the case of `Cc1ncsc1-c1ccc(CNC(=O)[C@@H]2C[C@@H](O)CN2C(=O)[C@@H](NC(=O)CNC(=O)CN2CCN(c3ccc(C(=O)Nc4n[nH]c5ccc(Cc6cc(F)cc(F)c6)cc45)c(NC4CCOCC4)c3)CC2)C(C)(C)C)cc1` [CPD-063, (2S,4R)-1-((S)-2-(2-(2-(4-(4-((5-(3,5-Difluorobenzyl)-1H-indazol-3-yl)carbamoyl)-3-((tetrahydro-2H-pyran-4-yl)amino)phenyl)piperazin-1-yl)acetamido)acetamido)-3,3-dimethylbutanoyl)-4-hydroxy-N-(4-(4-methylthiazol-5-yl)benzyl)pyrrolidine-2-carboxamide], the 50% inhibitory concentration (IC50) is more than 1000 nM.

Regarding `Cc1ncsc1-c1ccc(CNC(=O)[C@@H]2C[C@@H](O)CN2C(=O)[C@@H](NC(=O)CCCCCCCNC(=O)CN2CCN(c3ccc(C(=O)Nc4n[nH]c5ccc(Cc6cc(F)cc(F)c6)cc45)c(NC4CCOCC4)c3)CC2)C(C)(C)C)cc1` [CPD-061, (2S,4R)-1-((S)-2-(8-(2-(4-(4-((5-(3,5-Difluorobenzyl)-1H-indazol-3-yl)carbamoyl)-3-((tetrahydro-2H-pyran-4-yl)amino)phenyl)piperazin-1-yl)acetamido)octanamido)-3,3-dimethylbutanoyl)-4-hydroxy-N-(4-(4-methylthiazol-5-yl)benzyl)pyrrolidine-2-carboxamide], the 50% inhibitory concentration (IC50) is more than 1000 nM.

Staying with this test, now noted: Homo sapiens, 72 h; Table 3; KM12 cell viability, CellTiter-Glo, 3 days; read-out: IC50.
Regarding `O=C1CCC(N2C(=O)c3ccc(NCCCCC(=O)N4CCN(c5cccc(-c6cnc7ccc(N8CCC[C@@H]8c8cccc(F)c8)nn67)n5)CC4)cc3C2=O)C(=O)N1` (stereo partly drawn) [TR-115, 2-(2,6-Dioxopiperidin-3-yl)-5-((5-(4-(6-(6-((R)-2-(3-fluorophenyl)pyrrolidin-1-yl)imidazo[1,2-b]pyridazin-3-yl)pyridin-2-yl)piperazin-1-yl)-5-oxopentyl)amino)isoindoline-1,3-dione], the IC50 came to 0.9 nM.

For the molecule `O=C1CCC(N2Cc3cc(C#CCN4CCN(c5cccc(-c6cnc7ccc(N8CCC[C@@H]8c8cccc(F)c8)nn67)n5)CC4)ccc3C2=O)C(=O)N1` (stereo partly drawn) [TR-188, 3-(5-(3-(4-(6-(6-((R)-2-(3-Fluorophenyl)pyrrolidin-1-yl)imidazo[1,2-b]pyridazin-3-yl)pyridin-2-yl)piperazin-1-yl)prop-1-yn-1-yl)-1-oxoisoindolin-2-yl)piperidine-2,6-dione], the half-maximal inhibitory concentration (IC50) was 16.8 nM.

Take `O=C1CCC(N2C(=O)c3ccc(NCCCC(=O)N4CCN(c5ccc(C(=O)Nc6n[nH]c7ccc(Cc8cc(F)cc(F)c8)cc67)c(NC6CCOCC6)c5)CC4)cc3C2=O)C(=O)N1` (stereo not drawn) [TR-169, N-(5-(3,5-Difluorobenzyl)-1H-indazol-3-yl)-4-(4-(4-((2-(2,6-dioxopiperidin-3-yl)-1,3-dioxoisoindolin-5-yl)amino)butanoyl)piperazin-1-yl)-2-((tetrahydro-2H-pyran-4-yl)amino)benzamide]: the IC50 is 1.6 nM.

On to `O=C1CCC(N2C(=O)c3ccc(NCCOCCOCCOCCOCCOCCC(=O)N4CCN(c5cccc(-c6cnc7ccc(N8CCC[C@@H]8c8cccc(F)c8)nn67)n5)CC4)cc3C2=O)C(=O)N1` (stereo partly drawn) [TR-116, 2-(2,6-Dioxopiperidin-3-yl)-5-((18-(4-(6-(6-((R)-2-(3-fluorophenyl)pyrrolidin-1-yl)imidazo[1,2-b]pyridazin-3-yl)pyridin-2-yl)piperazin-1-yl)-18-oxo-3,6,9,12,15-pentaoxaoctadecyl)amino)isoindoline-1,3-dione], for which the IC50 was 2 nM.

On to `O=C1CCC(N2C(=O)c3ccc(NC4CN(c5cccc(-c6cnc7ccc(N8CCC[C@@H]8c8cccc(F)c8)nn67)n5)C4)cc3C2=O)C(=O)N1` (stereo partly drawn) [TR-175, 2-(2,6-Dioxopiperidin-3-yl)-5-((1-(6-(6-((R)-2-(3-fluorophenyl)pyrrolidin-1-yl)imidazo[1,2-b]pyridazin-3-yl)pyridin-2-yl)azetidin-3-yl)amino)isoindoline-1,3-dione], for which the 50% inhibitory concentration (IC50) worked out at 40.8 nM.

In the case of `O=C(CN1CCN(c2ccc(C(=O)Nc3n[nH]c4ccc(Cc5cc(F)cc(F)c5)cc34)c(NC3CCOCC3)c2)CC1)NCCCCCCNc1cccc2c1C(=O)N(C1CCC(=O)NC1=O)C2=O` (stereo not drawn) [TR-147, N-(5-(3,5-Difluorobenzyl)-1H-indazol-3-yl)-4-(4-(2-((6-((2-(2,6-dioxopiperidin-3-yl)-1,3-dioxoisoindolin-4-yl)amino)hexyl)amino)-2-oxoethyl)piperazin-1-yl)-2-((tetrahydro-2H-pyran-4-yl)amino)benzamide], the 50% inhibitory concentration (IC50) was determined as 6.4 nM.

`O=C(CN1CCN(c2cccc(-c3cnc4ccc(N5CCC[C@@H]5c5cccc(F)c5)nn34)n2)CC1)NCCCCCCCCNc1ccc2c(c1)C(=O)N(C1CCC(=O)NC1=O)C2=O` (stereo partly drawn) [TR-133, N-(8-((2-(2,6-dioxopiperidin-3-yl)-1,3-dioxoisoindolin-5-yl)amino)octyl)-2-(4-(6-(6-((R)-2-(3-fluorophenyl)pyrrolidin-1-yl)imidazo[1,2-b]pyridazin-3-yl)pyridin-2-yl)piperazin-1-yl)acetamide]: the concentration for half-maximal inhibition (IC50) came to 22.8 nM.

For the molecule `O=C(CN1CCN(c2cccc(-c3cnc4ccc(N5CCC[C@@H]5c5cccc(F)c5)nn34)n2)CC1)NCCCCNc1ccc2c(c1)C(=O)N(C1CCC(=O)NC1=O)C2=O` (stereo partly drawn) [TR-124, N-(4-((2-(2,6-dioxopiperidin-3-yl)-1,3-dioxoisoindolin-5-yl)amino)butyl)-2-(4-(6-(6-((R)-2-(3-fluorophenyl)pyrrolidin-1-yl)imidazo[1,2-b]pyridazin-3-yl)pyridin-2-yl)piperazin-1-yl)acetamide], the 50% inhibitory concentration (IC50) was 2.8 nM.

Staying with this test, now noted: Homo sapiens, 72 h; Table 4; KM12 cell viability, CellTiter-Glo, 3 days; read-out: IC50.
For `Cn1c(=O)n(C2CCC(=O)NC2=O)c2cccc(OCCN3CCN(c4cccc(-c5cnc6ccc(N7CCC[C@@H]7c7cccc(F)c7)nn56)n4)CC3)c21` (stereo partly drawn) [TR-244, 3-(4-(2-(4-(6-(6-((R)-2-(3-fluorophenyl)pyrrolidin-1-yl)imidazo[1,2-b]pyridazin-3-yl)pyridin-2-yl)piperazin-1-yl)ethoxy)-3-methyl-2-oxo-2,3-dihydro-1H-benzo[d]imidazol-1-yl)piperidine-2,6-dione], the half-maximal inhibitory concentration (IC50) amounted to 298 nM.

Regarding `O=C1CCC(N2C(=O)c3ccc(NCC(=O)NC4CN(c5cccc(-c6cnc7ccc(N8CCC[C@@H]8c8cccc(F)c8)nn67)n5)C4)cc3C2=O)C(=O)N1` (stereo partly drawn) [TR-213, 2-((2-(2,6-Dioxopiperidin-3-yl)-1,3-dioxoisoindolin-5-yl)amino)-N-(1-(6-(6-((R)-2-(3-fluorophenyl)pyrrolidin-1-yl)imidazo[1,2-b]pyridazin-3-yl)pyridin-2-yl)azetidin-3-yl)acetamide], the IC50 is 22.7 nM.
